In PMC8258697 (The Journal of Biological Chemistry, 2021):
Positions count from the first letter of the chain named.

Assays:
[1] = target: T1, RXRα LBD total mutant (Homo sapiens, UniProt P19793, E453R/F450Y/K284E/V280T/V298T); assay: Coactivator recruitment HTRF assay on isolated RXRα LBD total mutant (SRC1-2 peptide); format: biochemical; conditions: 100 nM sGFP-RXRα LBD total mutant
T1 construct: His10-tag with TEV site (N, cleaved yes); made in house; host or cells: E. coli T7 express (co-expressed with GroEL/ES)
T1 sequence (P19793 226-462 V280T/K284E/V298T/F450Y/E453R): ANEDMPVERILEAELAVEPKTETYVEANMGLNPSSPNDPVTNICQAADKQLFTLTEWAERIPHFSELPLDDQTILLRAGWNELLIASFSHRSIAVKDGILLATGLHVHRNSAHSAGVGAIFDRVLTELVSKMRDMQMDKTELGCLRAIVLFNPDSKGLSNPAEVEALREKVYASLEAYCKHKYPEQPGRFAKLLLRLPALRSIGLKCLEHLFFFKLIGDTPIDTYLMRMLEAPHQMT

[2] = tested on: PPARγ LBD; assay: Two-dimensional titration of SR11237 and unlabeled mutant RXRα LBD: CBP-1 recruitment by sGFP-PPARγ LBD (HTRF); format: biochemical, human;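 on HTRF mean; N=2: mutant RXRα LBD carries mutations that block its own coactivator recruitment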
[3] = target: T2, PPARγ LBD (Homo sapiens, UniProt P37231); assay: as above; format: biochemical; conditions: combined addition of SR11237 and RXRα at concentrations equal to PPARγ (100 nM) and higher
T2 construct: MBP-Asn10-His8-TEV site (N, cleaved yes); made in house; host or cells: E. coli T7 express (co-expressed with GroEL/ES)
T2 sequence (P37231 1-505): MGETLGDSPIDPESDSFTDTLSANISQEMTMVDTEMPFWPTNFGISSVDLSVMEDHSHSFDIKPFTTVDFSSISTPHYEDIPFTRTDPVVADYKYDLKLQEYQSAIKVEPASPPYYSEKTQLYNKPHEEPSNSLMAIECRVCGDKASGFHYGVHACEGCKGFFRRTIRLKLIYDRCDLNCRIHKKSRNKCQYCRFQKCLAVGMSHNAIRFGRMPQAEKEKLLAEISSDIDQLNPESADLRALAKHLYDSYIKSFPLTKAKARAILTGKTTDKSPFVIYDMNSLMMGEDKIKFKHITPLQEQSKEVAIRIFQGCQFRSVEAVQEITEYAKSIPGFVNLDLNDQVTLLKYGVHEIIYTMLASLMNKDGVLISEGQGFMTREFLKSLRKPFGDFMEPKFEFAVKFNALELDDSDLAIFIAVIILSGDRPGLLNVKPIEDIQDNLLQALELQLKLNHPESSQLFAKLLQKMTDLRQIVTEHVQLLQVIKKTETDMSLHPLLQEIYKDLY

[4] = target: T3, PPARγ:RXRα heterodimer (Homo sapiens, UniProt P19793+P37231); assay: PPARγ:RXRα heterodimer formation HTRF assay, sGFP-RXRα LBD titrated against biotinylated PPARγ LBD coupled to Tb-SA; format: binding; conditions: 10 μM ligand compared with no ligand
T3 construct: His10-tag with TEV site (N, cleaved yes); made in house; host or cells: E. coli T7 express (co-expressed with GroEL/ES)
T3 sequence (P37231 234-505): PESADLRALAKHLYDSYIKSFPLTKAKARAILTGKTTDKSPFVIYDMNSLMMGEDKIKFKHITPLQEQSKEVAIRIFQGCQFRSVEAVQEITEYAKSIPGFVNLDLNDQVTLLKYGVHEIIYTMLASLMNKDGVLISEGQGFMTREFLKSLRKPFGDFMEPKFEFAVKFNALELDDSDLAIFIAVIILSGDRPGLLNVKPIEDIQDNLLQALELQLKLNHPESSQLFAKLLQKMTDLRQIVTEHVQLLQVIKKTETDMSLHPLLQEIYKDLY
T3 sequence (P19793 226-462): T1 sequence (P19793 226-462 V280T/K284E/V298T/F450Y/E453R) with T55V, E59K, T73V, Y225F, R228E

CC1(C)CCC(C)(C)c2cc(C3(c4ccc(C(=O)O)cc4)OCCO3)ccc21 [SR11237]
stimulation of SRC1-2 coactivator recruitment [1]: no stimulation of coactivator recruitment was observed
HTRF mean; N=2 ([2]; SR11237 0.268435 nM, RXRα mutant LBD 0.976562 nM): 7866
HTRF mean; N=2 ([2]; SR11237 0.268435 nM, RXRα mutant LBD 1.95312 nM): 7838
HTRF mean; N=2 ([2]; SR11237 0.268435 nM, RXRα mutant LBD 3.90625 nM): 7920
HTRF mean; N=2 ([2]; SR11237 0.268435 nM, RXRα mutant LBD 7.8125 nM): 7909
HTRF mean; N=2 ([2]; SR11237 0.268435 nM, RXRα mutant LBD 31.25 nM): 7903
HTRF mean; N=2 ([2]; SR11237 0.268435 nM, RXRα mutant LBD 62.5 nM): 8248
HTRF mean; N=2 ([2]; SR11237 0.268435 nM, RXRα mutant LBD 250 nM): 8688
HTRF mean; N=2 ([2]; SR11237 0.268435 nM, RXRα mutant LBD 500 nM): 8760
HTRF mean; N=2 ([2]; SR11237 0.268435 nM, RXRα mutant LBD 1000 nM): 8782
HTRF mean; N=2 ([2]; SR11237 0.671089 nM, RXRα mutant LBD 0.976562 nM): 8003
HTRF mean; N=2 ([2]; SR11237 0.671089 nM, RXRα mutant LBD 1.95312 nM): 7881
HTRF mean; N=2 ([2]; SR11237 0.671089 nM, RXRα mutant LBD 3.90625 nM): 7929
HTRF mean; N=2 ([2]; SR11237 0.671089 nM, RXRα mutant LBD 7.8125 nM): 7967
HTRF mean; N=2 ([2]; SR11237 0.671089 nM, RXRα mutant LBD 31.25 nM): 8123
HTRF mean; N=2 ([2]; SR11237 0.671089 nM, RXRα mutant LBD 62.5 nM): 8262
HTRF mean; N=2 ([2]; SR11237 0.671089 nM, RXRα mutant LBD 250 nM): 8624
HTRF mean; N=2 ([2]; SR11237 0.671089 nM, RXRα mutant LBD 500 nM): 8662
HTRF mean; N=2 ([2]; SR11237 0.671089 nM, RXRα mutant LBD 1000 nM): 8739
HTRF mean; N=2 ([2]; SR11237 1.67772 nM, RXRα mutant LBD 0.976562 nM): 7886
HTRF mean; N=2 ([2]; SR11237 1.67772 nM, RXRα mutant LBD 1.95312 nM): 7834
HTRF mean; N=2 ([2]; SR11237 1.67772 nM, RXRα mutant LBD 3.90625 nM): 7842
HTRF mean; N=2 ([2]; SR11237 1.67772 nM, RXRα mutant LBD 7.8125 nM): 7973
HTRF mean; N=2 ([2]; SR11237 1.67772 nM, RXRα mutant LBD 31.25 nM): 8258
HTRF mean; N=2 ([2]; SR11237 1.67772 nM, RXRα mutant LBD 62.5 nM): 8301
HTRF mean; N=2 ([2]; SR11237 1.67772 nM, RXRα mutant LBD 250 nM): 8705
HTRF mean; N=2 ([2]; SR11237 1.67772 nM, RXRα mutant LBD 500 nM): 8706
HTRF mean; N=2 ([2]; SR11237 1.67772 nM, RXRα mutant LBD 1000 nM): 8875
HTRF mean; N=2 ([2]; SR11237 10.4858 nM, RXRα mutant LBD 0.976562 nM): 7841
HTRF mean; N=2 ([2]; SR11237 10.4858 nM, RXRα mutant LBD 1.95312 nM): 7813
HTRF mean; N=2 ([2]; SR11237 10.4858 nM, RXRα mutant LBD 3.90625 nM): 7835
HTRF mean; N=2 ([2]; SR11237 10.4858 nM, RXRα mutant LBD 7.8125 nM): 7963
HTRF mean; N=2 ([2]; SR11237 10.4858 nM, RXRα mutant LBD 31.25 nM): 8186
HTRF mean; N=2 ([2]; SR11237 10.4858 nM, RXRα mutant LBD 62.5 nM): 8299
HTRF mean; N=2 ([2]; SR11237 10.4858 nM, RXRα mutant LBD 250 nM): 8710
HTRF mean; N=2 ([2]; SR11237 10.4858 nM, RXRα mutant LBD 500 nM): 8818
HTRF mean; N=2 ([2]; SR11237 10.4858 nM, RXRα mutant LBD 1000 nM): 8916
HTRF mean; N=2 ([2]; SR11237 26.2144 nM, RXRα mutant LBD 0.976562 nM): 7919
HTRF mean; N=2 ([2]; SR11237 26.2144 nM, RXRα mutant LBD 1.95312 nM): 7957
HTRF mean; N=2 ([2]; SR11237 163.84 nM, RXRα mutant LBD 0.976562 nM): 7969
HTRF mean; N=2 ([2]; SR11237 163.84 nM, RXRα mutant LBD 1.95312 nM): 7882
HTRF mean; N=2 ([2]; SR11237 163.84 nM, RXRα mutant LBD 3.90625 nM): 7848
HTRF mean; N=2 ([2]; SR11237 163.84 nM, RXRα mutant LBD 7.8125 nM): 7981
HTRF mean; N=2 ([2]; SR11237 163.84 nM, RXRα mutant LBD 31.25 nM): 8037
HTRF mean; N=2 ([2]; SR11237 163.84 nM, RXRα mutant LBD 62.5 nM): 8496
HTRF mean; N=2 ([2]; SR11237 163.84 nM, RXRα mutant LBD 250 nM): 9360
HTRF mean; N=2 ([2]; SR11237 163.84 nM, RXRα mutant LBD 500 nM): 9174
HTRF mean; N=2 ([2]; SR11237 163.84 nM, RXRα mutant LBD 1000 nM): 9009
HTRF mean; N=2 ([2]; SR11237 1024 nM, RXRα mutant LBD 1.95312 nM): 7904
HTRF mean; N=2 ([2]; SR11237 1024 nM, RXRα mutant LBD 3.90625 nM): 7933
HTRF mean; N=2 ([2]; SR11237 1024 nM, RXRα mutant LBD 7.8125 nM): 8096
HTRF mean; N=2 ([2]; SR11237 1024 nM, RXRα mutant LBD 31.25 nM): 8413
HTRF mean; N=2 ([2]; SR11237 1024 nM, RXRα mutant LBD 62.5 nM): 8597
HTRF mean; N=2 ([2]; SR11237 1024 nM, RXRα mutant LBD 250 nM): 9475
HTRF mean; N=2 ([2]; SR11237 1024 nM, RXRα mutant LBD 500 nM): 9672
HTRF mean; N=2 ([2]; SR11237 1024 nM, RXRα mutant LBD 1000 nM): 9907
HTRF mean; N=2 ([2]; SR11237 16000 nM, RXRα mutant LBD 0.976562 nM): 8373
HTRF mean; N=2 ([2]; SR11237 16000 nM, RXRα mutant LBD 1.95312 nM): 8383
HTRF mean; N=2 ([2]; SR11237 16000 nM, RXRα mutant LBD 3.90625 nM): 8482
HTRF mean; N=2 ([2]; SR11237 16000 nM, RXRα mutant LBD 7.8125 nM): 8492
HTRF mean; N=2 ([2]; SR11237 16000 nM, RXRα mutant LBD 31.25 nM): 8658
HTRF mean; N=2 ([2]; SR11237 16000 nM, RXRα mutant LBD 62.5 nM): 9133
HTRF mean; N=2 ([2]; SR11237 16000 nM, RXRα mutant LBD 250 nM): 9981
HTRF mean; N=2 ([2]; SR11237 16000 nM, RXRα mutant LBD 500 nM): 10090
HTRF mean; N=2 ([2]; SR11237 16000 nM, RXRα mutant LBD 1000 nM): 10256
HTRF mean; N=2 ([2]; SR11237 100000 nM, RXRα mutant LBD 0.976562 nM): 8525
HTRF mean; N=2 ([2]; SR11237 100000 nM, RXRα mutant LBD 1.95312 nM): 8620
HTRF mean; N=2 ([2]; SR11237 100000 nM, RXRα mutant LBD 3.90625 nM): 8706
HTRF mean; N=2 ([2]; SR11237 100000 nM, RXRα mutant LBD 7.8125 nM): 8679
HTRF mean; N=2 ([2]; SR11237 100000 nM, RXRα mutant LBD 31.25 nM): 8875
HTRF mean; N=2 ([2]; SR11237 100000 nM, RXRα mutant LBD 62.5 nM): 9423
HTRF mean; N=2 ([2]; SR11237 100000 nM, RXRα mutant LBD 250 nM): 9880
HTRF mean; N=2 ([2]; SR11237 100000 nM, RXRα mutant LBD 500 nM): 10045
HTRF mean; N=2 ([2]; SR11237 100000 nM, RXRα mutant LBD 1000 nM): 9921
HTRF mean; N=2 ([2]; SR11237 […], RXRα mutant LBD 0.976562 nM): 8114
HTRF mean; N=2 ([2]; SR11237 […], RXRα mutant LBD 1.95312 nM): 8140
HTRF mean; N=2 ([2]; SR11237 […], RXRα mutant LBD 3.90625 nM): 8154
HTRF mean; N=2 ([2]; SR11237 […], RXRα mutant LBD 7.8125 nM): 8229
HTRF mean; N=2 ([2]; SR11237 […], RXRα mutant LBD 31.25 nM): 8421
HTRF mean; N=2 ([2]; SR11237 […], RXRα mutant LBD 62.5 nM): 8922
HTRF mean; N=2 ([2]; SR11237 […], RXRα mutant LBD 250 nM): 9616
HTRF mean; N=2 ([2]; SR11237 […], RXRα mutant LBD 500 nM): 9926
HTRF mean; N=2 ([2]; SR11237 […], RXRα mutant LBD 1000 nM): 9869
CBP-1 recruitment relative to that seen with rosiglitazone ([2]; other factor (RXRα or SR11237) present at ≤1 nM): ≤ 5%
CBP-1 recruitment relative to full activation of monomeric PPARγ with rosiglitazone [3]: up to 26%
effect on PPARγ:RXRα heterodimer formation [4]: significant stabilizing effect
